Data published in patent publication US10597388B2, “Pyridazinone herbicides” (FMC CORPORATION, priority 2014, dated 2020).

Tests used:
Test in all cases: Test D controlled growth environment herbicide test, pre- and postemergence
Type in all cases: in vivo
[1] = system: speedwell (bird's-eye speedwell, Veronica persica)
In short: (§1)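 Rating is visual, 0–100 scale (100 = complete control), made against untreated plants 14–21 d after treatment in controlled growth conditions. Postemergence sprays went onto 1- to 4-leaf plants in peat medium; preemergence sprays onto silt loam after sowing; formulation included a surfactant.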

[2] = system: buckwheat, wild (wild buckwheat, Polygonum convolvulus)
In short: as §1

[3] = system: windgrass (Apera spica-venti)
In short: as §1

[4] = system: canarygrass (Phalaris minor)
In short: as §1

[5] = system: pigweed (Amaranthus retroflexus)
In short: as §1

[6] = system: Russian thistle (Salsola kali)
In short: as §1

[7] = system: radish, wild (wild radish, Raphanus raphanistrum)
In short: as §1

[8] = system: galium (catchweed bedstraw, Galium aparine)
In short: as §1

[9] = system: bluegrass (annual bluegrass, Poa annua)
In short: as §1

[10] = system: mustard, wild (wild mustard, Sinapis arvensis)
In short: as §1

[11] = system: field violet (Viola arvensis)
In short: as §1

[12] = system: oilseed rape (Brassica napus)
In short: as §1

kochia (Kochia scoparia) = system: kochia (Kochia scoparia)
In short: as §1

[13] = Postemergence, 31 g ai/ha, scale 0 to 100 (0 no effect, 100 complete control)
[14] = Postemergence, 125 g ai/ha, visual rating on scale 0 (no effect) to 100 (complete control), 14 to 21 d
[15] = Postemergence, 250 g ai/ha, scale 0 to 100 (0 no effect, 100 complete control)
[16] = Preemergence, 125 g ai/ha, scale 0 to 100 (0 no effect, 100 complete control)
[17] = Preemergence, 250 g ai/ha, scale 0 to 100 (0 no effect, 100 complete control)
[18] = postemergence, 62 g ai/ha, scale 0 to 100, 0 no effect, 100 complete control
[19] = Preemergence, 62 g ai/ha, scale 0 to 100 (0 no effect, 100 complete control)

SMILES: CCOC(=O)Oc1c(C)nn(C)c(=O)c1-c1c(C)sc2c(C)cc(C)cc12 [Compound 83]
- Speedwell plant response rating [1, 13]: 65
- Plant response rating, Speedwell [1, 14]: 75
- Plant response rating, Speedwell [1, 15]: 100
- Plant response rating (scale of 0 to 100), Speedwell ([1]; Preemergence, 31 g ai/ha): 70
- Plant response rating (scale of 0 to 100), Speedwell ([1]; Preemergence, 62 g ai/ha): 75
- Plant response rating, Speedwell [1, 16]: 100
- Plant response rating, Speedwell [1, 17]: 100
- Plant response rating, Speedwell [1, 18]: 70
- Buckwheat, Wild plant response rating [2, 13]: 100
- Plant response rating, Buckwheat, Wild [2, 14]: 100
- Plant response rating, Buckwheat, Wild [2, 15]: 100
- Plant response rating (scale of 0 to 100), Buckwheat, Wild ([2]; Preemergence, 31 g ai/ha): 0
- Plant response rating, Buckwheat, Wild [2, 19]: 0
- Plant response rating, Buckwheat, Wild [2, 16]: 0
- Plant response rating, Buckwheat, Wild [2, 17]: 25
- Plant response rating, Buckwheat, Wild [2, 18]: 100
- Windgrass plant response rating [3, 13]: 75
- Plant response rating, Windgrass [3, 14]: 90
- Plant response rating, Windgrass [3, 15]: 95
- Plant response rating (scale of 0 to 100), Windgrass ([3]; Preemergence, 31 g ai/ha): 15
- Plant response rating (scale of 0 to 100), Windgrass ([3]; Preemergence, 62 g ai/ha): 75
- Plant response rating, Windgrass [3, 16]: 90
- Plant response rating, Windgrass [3, 17]: 95
- Plant response rating, Windgrass [3, 18]: 85
- Canarygrass plant response rating [4, 13]: 50
- Plant response rating, Canarygrass [4, 14]: 80
- Plant response rating, Canarygrass [4, 15]: 90
- Plant response rating (scale of 0 to 100), Canarygrass ([4]; Preemergence, 31 g ai/ha): 65
- Plant response rating (scale of 0 to 100), Canarygrass ([4]; Preemergence, 62 g ai/ha): 85
- Plant response rating, Canarygrass [4, 16]: 90
- Plant response rating, Canarygrass [4, 17]: 100
- Plant response rating, Canarygrass [4, 18]: 75
- Pigweed plant response rating [5, 13]: 100
- Plant response rating, Pigweed [5, 14]: 100
- Plant response rating, Pigweed [5, 15]: 100
- Plant response rating (scale of 0 to 100), Pigweed ([5]; Preemergence, 31 g ai/ha): 100
- Plant response rating (scale of 0 to 100), Pigweed ([5]; Preemergence, 62 g ai/ha): 100
- Plant response rating, Pigweed [5, 16]: 100
- Plant response rating, Pigweed [5, 17]: 100
- Plant response rating, Pigweed [5, 18]: 100
- Russian Thistle plant response rating [6, 13]: 75
- Plant response rating, Russian Thistle [6, 14]: 80
- Plant response rating, Russian Thistle [6, 15]: 85
- Plant response rating (scale of 0 to 100), Russian Thistle ([6]; Preemergence, 31 g ai/ha): 0
- Plant response rating (scale of 0 to 100), Russian Thistle ([6]; Preemergence, 62 g ai/ha): 0
- Plant response rating, Russian Thistle [6, 16]: 15
- Plant response rating, Russian Thistle [6, 17]: 0
- Plant response rating, Russian Thistle [6, 18]: 80
- Radish, Wild plant response rating [7, 13]: 75
- Plant response rating, Radish, Wild [7, 14]: 100
- Plant response rating, Radish, Wild [7, 15]: 100
- Plant response rating (scale of 0 to 100), Radish, Wild ([7]; Preemergence, 31 g ai/ha): 30
- Plant response rating (scale of 0 to 100), Radish, Wild ([7]; Preemergence, 62 g ai/ha): 70
- Plant response rating, Radish, Wild [7, 16]: 90
- Plant response rating, Radish, Wild [7, 17]: 90
- Plant response rating, Radish, Wild [7, 18]: 90
- Galium plant response rating [8, 13]: 100
- Plant response rating, Galium [8, 14]: 100
- Plant response rating, Galium [8, 15]: 100
- Plant response rating (scale of 0 to 100), Galium ([8]; Preemergence, 31 g ai/ha): 0
- Plant response rating (scale of 0 to 100), Galium ([8]; Preemergence, 62 g ai/ha): 25
- Plant response rating, Galium [8, 16]: 40
- Plant response rating, Galium [8, 17]: 85
- Plant response rating, Galium [8, 18]: 100
- Bluegrass plant response rating [9, 13]: 0
- Plant response rating, Bluegrass [9, 14]: 15
- Plant response rating, Bluegrass [9, 15]: 25
- Plant response rating (scale of 0 to 100), Bluegrass ([9]; Preemergence, 31 g ai/ha): 15
- Plant response rating, Bluegrass [9, 19]: 15
- Plant response rating, Bluegrass [9, 16]: 35
- Plant response rating, Bluegrass [9, 17]: 35
- Plant response rating, Bluegrass [9, 18]: 10
- Mustard, Wild plant response rating [10, 13]: 25
- Plant response rating, Mustard, Wild [10, 14]: 65
- Plant response rating, Mustard, Wild [10, 15]: 70
- Plant response rating (scale of 0 to 100), Mustard, Wild ([10]; Preemergence, 31 g ai/ha): 0
- Plant response rating (scale of 0 to 100), Mustard, Wild ([10]; Preemergence, 62 g ai/ha): 0
- Plant response rating, Mustard, Wild [10, 16]: 35
- Plant response rating, Mustard, Wild [10, 17]: 25
- Plant response rating, Mustard, Wild [10, 18]: 25
- Field Violet plant response rating [11, 13]: 90
- Plant response rating, Field Violet [11, 14]: 100
- Plant response rating, Field Violet [11, 15]: 100
- Plant response rating (scale of 0 to 100), Field Violet ([11]; Preemergence, 31 g ai/ha): 75
- Plant response rating (scale of 0 to 100), Field Violet ([11]; Preemergence, 62 g ai/ha): 80
- Plant response rating, Field Violet [11, 16]: 95
- Plant response rating, Field Violet [11, 17]: 100
- Plant response rating, Field Violet [11, 18]: 80
- Oilseed Rape plant response rating [12, 13]: 65
- Plant response rating, Oilseed Rape [12, 14]: 75
- Plant response rating, Oilseed Rape [12, 15]: 95
- Plant response rating (scale of 0 to 100), Oilseed Rape ([12]; Preemergence, 31 g ai/ha): 5
- Plant response rating (scale of 0 to 100), Oilseed Rape ([12]; Preemergence, 62 g ai/ha): 5
- Plant response rating, Oilseed Rape [12, 16]: 10
- Plant response rating, Oilseed Rape [12, 17]: 10
- Plant response rating, Oilseed Rape [12, 18]: 70
- Kochia plant response rating (kochia (Kochia scoparia); [13]): 70
- Plant response rating, Kochia (kochia (Kochia scoparia); [14]): 80
- Plant response rating, Kochia (kochia (Kochia scoparia); [15]): 90
- Plant response rating (scale of 0 to 100), Kochia (kochia (Kochia scoparia); Preemergence, 31 g ai/ha): 0
- Plant response rating (scale of 0 to 100), Kochia (kochia (Kochia scoparia); Preemergence, 62 g ai/ha): 0
- Plant response rating, Kochia (kochia (Kochia scoparia); [16]): 30
- Plant response rating, Kochia (kochia (Kochia scoparia); [17]): 50
- Plant response rating, Kochia (kochia (Kochia scoparia); [18]): 75
